From patent US9914755B2, “Cyclosporin derivatives wherein the MeBmt sidechain has been cyclized” (Allergan, Inc., priority 2015, dated 2018)
In brackets after ≈: the same amount, converted by molar mass. Like-named read-outs stand apart in the source and are kept apart here.

Columns and labels:
[1] = target: T1, Human recombinant cyclophilin A (CypA) (Homo sapiens, UniProt P62937); experiment: Protease-free PPIase assay, cyclophilin A; type: biochemical
T1 construct: purchased Sigma C3805
Experimental: (§1) Protease-Free PPIase Assay The protease-free PPIase assay measures the rate of cis to trans conversion of a peptide substrate catalyzed by the enzyme cyclophilin A or D. Addition of a cyclophilin inhibitor (e.g., a test compound) slows the catalyzed rate and a Ki value is obtained. 35 mM HEPES pH 7.8, filtered through a 0.2 μm filter. 50 μM DTT was added prior to use each day and then the buffer was stored on ice. […] Human recombinant 6-His tagged cyclophilin D (CypD), prepared by the University of Edinburgh, was used to generate CypD inhibition data. Succinimide-[…]-nitroanilide (SUC-AAPF-pNA) (from Bachem AG, L-1400), 20 mg/ml prepared in 0.5 M LiCl in trifluoroethanol. All readings were taken with an Agilent 8453 Spectrophotometer which consisted of a cuvette holder, stirrer and chiller to maintain a stirred cuvette temperature of 10.0±0.1° C. The temperature was monitored by the use of temperature probe. […] The inhibitor was diluted in 100% DMSO, and then added to the assay to a maximum final concentration of 0.5% DMSO in the assay. […] The absorbance was measured at 330 nm for 300 s or 500 s for blank runs (NOTE: the substrate was added in one quick injection and the measurements started immediately to minimize mixing errors). A first order rate equation was fitted to the absorbance data, for each concentration of inhibitor, to obtain the rate constant (the first 10 to 15 seconds were excluded, as mixing causes errors in this portion of the curve). The catalytic rate was calculated from the enzymatic rate constant minus the background rate constant. An exponential curve was generated using the catalytic rate constants versus the inhibitor concentration to obtain the Ki value for the inhibitor. The Ki value is indicative of the binding affinity between the test compound and cyclophilin A.

[2] = target: T2, Human recombinant 6-His tagged cyclophilin D (CypD) (Homo sapiens, UniProt P30405); experiment: Protease-free PPIase assay, cyclophilin D; type: biochemical
T2 construct: 6-His
Experimental: as §1

[3] = Water Solubility Assay (onset of precipitation in buffer); conditions: 25 °C, pH 7.4, aqueous buffer, kinetic from dmso stock
Experimental: (§2) The aqueous solubility of a compound of Formula I in buffer (pH 7.8) was measured by recording the onset of precipitation of the compound as a function of increasing concentration. The onset of precipitation, if it occurred, was detected by an increase in absorbance at 650 nm.
(§3) Stock solutions of Control and Test Compounds: 10 mM in 100% DMSO.
(§4) 10 mM stock solutions of control and test compounds were prepared in 100% DMSO.
(§5) Assay buffer (247.5 μl) was placed into a flat bottomed transparent 96-well plate. For blank samples, DMSO (2.5 μl) was added. For test and control samples, 2.5 μl of the appropriate DMSO dilution stocks were added to the appropriate well. All test and control compounds were performed in triplicate.
(§6) The plates were sealed with adhesive plate seal and shaken at 250 rpm at 25° C. for 18 h on a plate shaker. After incubation, the plate seals were taken off and any bubbles observed in wells removed. The plates were read on a SpectraMaxM5 with a 5 s pre-shake at 650 nm.
(§7) Data files were transferred to the appropriate worksheet and the solubility range of the compounds was calculated from the data.

calcineurin = target: T3, calcineurin (Homo sapiens, UniProt P62937+P63098+Q08209); experiment: Calcineurin Phosphatase (CaN) Assay; type: biochemical; conditions: in the presence of CypA, 1:1 complex of inhibitor with CypA
T3 construct: purchased Enzo Life Sciences BML-AK804
From the text: Calcineurin Phosphatase (CaN) Assay
The calcineurin phosphatase assay is a means for estimating the immunosuppressive potential of a test compound. Calcineurin is a serine-threonine protein phosphatase that on activation dephosphorylates members of the nuclear factor of activated T cells (NFAT), which are important in T lymphocyte activation.
To investigate the immunosuppressive potential of exemplary compounds of Formula I, which are cyclosporin analogs, their ability to inhibit calcineurin activity was measured in the presence and absence of CypA.
The CaN assay kit used is based on a colorimetric assay for measuring calcineurin phosphatase activity, and it is commercially available (Enzo Life Sciences and Calbiochem). Calmodulin is also required for calcineurin activity, and RII phosphopeptide is used as an efficient peptide substrate for calcineurin. […] The detection of free phosphate released is based on the classic Malachite green assay.
Enzo Life Sciences CaN Assay Kit: BML-AK804
For samples ‘without CypA’, a 4-point dilution series of the inhibitor was prepared in duplicate to obtain a final assay concentration of 10, 1, 0.1 and 0.01 μM. For samples ‘with CypA’, a 7-point dilution series was prepared to obtain a 1:1 complex of the inhibitor with CypA; the inhibitor and CypA final assay concentrations of 10, 3.33, 1.11, 0.37, 0.12, 0.04, 0.014 μM were prepared.
using the half area 96 well plates supplied with the kit, 10 μl UPW was added to duplicate wells to provide the non-inhibited control. 10 μl of the inhibitor or the inhibitor/CypA complex was added to the appropriate sample wells. 25 μl of the 2× assay buffer with calmodulin (CaM) was added to all wells, then 5 μl of calcineurin phosphatase (CaN) was added to all wells (40 U per well final concentration) except duplicate ‘no calcineurin blank’ wells to which 5 μL 1× assay buffer was added. The assay plate was placed in an oven at 30° C. for 15 minutes to equilibrate to the reaction temperature. The reaction was started by the addition of 10 μl RII-peptide (0.15 mM final concentration). The reaction was allowed to proceed at 30° C. for a time period in which the reaction is linear for about 60 minutes. The reaction was then terminated by adding 100 μl of the Malachite Green reagent. The color was allowed to develop for 15-30 minutes at room temperature before the absorbance at 620 nm was measured using a plate reader (Molecular Devices—SpectraMax M5). The data were analyzed by subtracting ‘no calcineurin blank’ from all the absorbance readings and plotting the background corrected absorbances against Log10 inhibitor concentration. A sigmoidal-dose response curve was fitted to the data using GraphPad Prism Software.
It exerts its immunosuppressive activity by binding to CypA to form a complex, which then binds to calcineurin and thereby inhibits calcineurin activity.

physchem = conditions: 25 °C, pH 7.4, aqueous buffer, kinetic from dmso stock
Experimental: as §2, §3, §4, §5, §6, §7

[4] = human recombinant CypA, 10 °C, SUC-AAPF-pNA substrate, read-out: CypA Protease-free PPIase Assay Ki
[5] = human recombinant 6-His CypD, 10 °C, SUC-AAPF-pNA substrate, read-out: CypD Protease-free PPIase Assay Ki

T1 sequence (P62937 whole entry): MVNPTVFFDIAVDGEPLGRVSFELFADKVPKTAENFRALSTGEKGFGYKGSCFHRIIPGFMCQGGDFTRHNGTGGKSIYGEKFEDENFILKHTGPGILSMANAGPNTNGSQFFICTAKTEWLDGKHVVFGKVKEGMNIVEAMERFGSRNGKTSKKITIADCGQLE
T2 sequence (P30405 30-207): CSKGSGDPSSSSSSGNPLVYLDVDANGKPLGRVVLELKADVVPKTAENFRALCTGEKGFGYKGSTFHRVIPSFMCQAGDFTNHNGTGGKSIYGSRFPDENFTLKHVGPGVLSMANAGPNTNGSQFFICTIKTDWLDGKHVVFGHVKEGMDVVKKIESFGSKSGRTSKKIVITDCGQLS

| Ki [1, 4] | Ki [2, 5] | IC50 (calcineurin) | solubility at 18 h (physchem) | SMILES | Ki [1] | Ki [2] | solubility at 18 h [3] |
| --- | --- | --- | --- | --- | --- | --- | --- |
| – | – | – | – | CC(C)C[C@@H]1C(=O)N(C)[C@H](CC(C)C)C(=O)N(C)[C@H](C(C)C)C(=O)N(C)[C@H]([C@@H]2OCC[C@H]2C)C(=O)N[C@H](C)C(=O)N(C)CC(=O)N(C)[C@@H](CC(C)C)C(=O)N[C@H](C(C)C)C(=O)N(C)[C@H](CC(C)C)C(=O)N[C@H](C)C(=O)N[C@@H](C)C(=O)N1C [Compound 9, [(2S)-2-(methylamino)-2-[(2R,3R)-3-methyltetrahydrofuran-2-yl]acetic acid]^1 cyclosporin B] | 8600 nM | 200 nM | > 100 µM |
| 315 nM | 160 nM | > 10000 nM | > 100 µM | CC[C@H]1NC(=O)[C@@H]([C@@H]2OC(=O)N(C)C[C@H]2C)N(C)C(=O)[C@@H](C(C)C)N(C)C(=O)[C@@H](CC(C)C)N(C)C(=O)[C@@H](CC(C)C)N(C)C(=O)[C@H](C)NC(=O)[C@@H](C)NC(=O)[C@@H](CC(C)C)N(C)C(=O)[C@@H](C(C)C)NC(=O)[C@H](CC(C)C)N(C)C(=O)[C@@H](C)N(C)C1=O [Compound 22] | – | – | – |
| 550 nM | 79 nM | > 10000 nM | > 100 µM | CC[C@H]1NC(=O)[C@@H]([C@@H]2OCN(C)C[C@H]2C)N(C)C(=O)[C@@H](C(C)C)N(C)C(=O)[C@@H](CC(C)C)N(C)C(=O)[C@@H](CC(C)C)N(C)C(=O)[C@H](C)NC(=O)[C@@H](C)NC(=O)[C@@H](CC(C)C)N(C)C(=O)[C@@H](C(C)C)NC(=O)[C@H](CC(C)C)N(C)C(=O)[C@@H](C)N(C)C1=O [Compound 24] | – | – | – |
| 275 nM | 64 nM | > 10000 nM | 75 µM (≈ 90.2 µg/mL) | CC[C@H]1NC(=O)[C@@H](C2OC(C)C[C@H]2C)N(C)C(=O)[C@@H](C(C)C)N(C)C(=O)[C@@H](CC(C)C)N(C)C(=O)[C@@H](CC(C)C)N(C)C(=O)[C@H](C)NC(=O)[C@@H](C)NC(=O)[C@@H](CC(C)C)N(C)C(=O)[C@@H](C(C)C)NC(=O)[C@H](CC(C)C)N(C)C(=O)[C@@H](C)N(C)C1=O (stereo partly drawn) [Compound 26, [(2S)-2-[(2R,3R)-3,5-dimethyltetrahydrofuran-2-yl]-2-(methylamino)acetic acid]^1 [(R)-methyl-Sar]^3 cyclosporin A] | – | – | – |
